Measurements as given in US12702671B2, “Calcineurin inhibitors of the setron family for the treatment of hearing loss” (SENSORION, priority 2015, dated 2026).
Where a name gives a salt, the structure may show the parent alone.

Columns and labels:
[1] = tested on: acoustic trauma induced hearing loss; assay: Auditory brainstem response (ABR) thresholds after acoustic trauma; format: in vivo, Wistar rats; conditions: for ABR threshold recovery from 24 h to day 14 compared to placebo / hearing outcomes (ABR thresholds and DPOAE amplitudes) at 14 days after acoustic trauma compared to placebo: i.p. daily for 14 days after acoustic trauma, same doses as E4; for ABR threshold shift from baseline to day 14 compared to placebo: i.p. daily for 14 days from immediately after 121 dB trauma, azasetron HCl 4.22, ondansetron HCl 4, tropisetron HCl 3.5, granisetron HCl 3.8, Tacrolimus 1.5 mg/kg
Description: (§1) All experiments were performed using 7 week old male Wistar rats (CERJ, Le Genest, France) in accordance with the French Ministry of Agriculture regulations and European Community Council Directive no. 86/609/EEC, OJL 358. The rats were fed a standard diet ad libitum and maintained on a 12 h light-dark cycle.
(§2) Auditory Brainstem Reponses (ABR) and Distortion Product Otoacoustic Emissions (DPOAE) were recording using a RZ6 Auditory Workstation (Tucker-Davis Technologies, Alachua, FL, USA) with animals deeply anesthetized using 90 mg/kg ketamine and 10 mg/kg xylazine and placed on a 35° C. recirculating heating pad inside a sound attenuating cubicle (Med Associates Inc., St. Albans, VT, USA) throughout the experiment.
For ABR recordings, three stainless steel needle electrodes were placed subdermally over the vertex, the right mastoid and right hind leg of each animal. Tone-pips (5 msec duration presented at a rate of 21/s) at 8, 16 and 24 kHz were delivered to the right ear using a calibrated MF-1 speaker in closed-field configuration (Tucker-Davis Technologies, Alachua, FL, USA) at attenuating intensity until no reproducible response could be recorded. Close to the ABR threshold, the responses to 1000 acoustic stimuli in 5 dB steps were averaged. Responses were low-pass filtered at 3 kHz.
(§3) Animals were exposed to 121 dB octave band noise (8-16 kHz) for 2 h in groups of 4 rats, placed in individual compartments of a custom built circular cage placed on a 30 cm diameter platform rotating at 3 turns/minute (Aqila Innovation, Valbonne, France). The calibrated octave band noise generated by the RZ6 SigGen software was further amplified by a Crown D-75 amplifier in bridge mode (Crown Audio, Elkhart, IN, USA) and delivered by four Beyma CP16 compression tweeters (Acustica Beyma S. L., Moncada, Valencia, Spain) positioned 39 cm above the rotating platform, each 10 cm from the platform center.
(§4) Animals were treated by intraperitoneal injection daily for 14 days beginning immediately after acoustic trauma induction and subsequently repeated every 24 hours. The setron compounds granisetron HCl, ondansetron HCl, tropisetron HCl and azasetron HCl (Tocris Bioscience, Bristol, UK) were delivered dissolved in saline solution (1.6 mL/kg) while Tacrolimus (Selleck Chemicals, Houston, TX, USA) was dissolved in solution composed of 10% ethanol-100%/10% Kolliphor EL/1% Tween 80/79% saline (1.0 mL/kg). Placebo treated animals received injections of 1.6 mL/kg saline following the same treatment schedule.
(§5) Statistical analysis was performed using two-way ANOVA (Audiometry data: frequency and treatment group. Cochleograms: normalized distance from apex and treatment group) followed by Holm-Sidak post-hoc test for multiple comparisons. Results are given as mean±SEM and a p value less than or equal to 0.05 considered significant.
(§6) Baseline line audiometry (ABR and DPOAE measures) was performed for each animal 3 days before acoustic trauma was induced. Subsequently, audiometry measures were repeated 24 h and 14 days after acoustic trauma.
(§7) To quantify and compare the difference in treatment effects between groups while taking into account individual baseline and trauma variability, the hearing loss (ABR threshold shift & DPOAE amplitude loss) at D14 relative to baseline, as well as the functional recovery of hearing from 24 h to D14 (ABR threshold shift & DPOAE amplitude loss) were determined for all treatment groups.

[2] = tested on: acoustic trauma induced hearing loss; assay: Distortion product otoacoustic emissions (DPOAE) amplitudes after acoustic trauma; format: in vivo, Wistar rats; conditions: for DPOAE amplitude loss from baseline to day 14 compared to placebo / recovery of DPOAE amplitudes from 24 h post trauma to day 14 compared to placebo: i.p. daily for 14 days after acoustic trauma, same doses as E4
Description: as §1, §2
DPOAEs were recorded and using ER10B+ Low Noise DPOAE microphone (Etymotic Research, Inc., Elk Grove Village, IL, USA) with acoustic stimuli delivered by two calibrated MF-1 speakers in closed-field configuration (Tucker-Davis Technologies, Alachua, FL, USA). DPOAEs were recorded at fixed stimulus levels (L1=L2=70 dB SPL), with an f2/f1 ratio of 1.2. Responses were recorded at 4, 8, 16, 24 and 32 kHz.
as §3, §4, §5, §6, §7

outer hair cells = assay: Outer hair cell loss (cytocochleograms) in cochleae fixed at D14 after acoustic trauma; format: in vivo, Wistar rats; conditions: cochleae fixed after audiometry on day 14
Description: as §3, §4
After audiometry on day 14, animals were deeply anaesthetized with an intraperitoneal injection of pentobarbital (100 mg/kg). The cochleae were removed, fixed with 4% paraformaldehyde, pH 7.4, decalcified with 10% EDTA, pH 7.4 and then stained with myosin VIIa 1/1000. […] The mean loss of OHCs per group was subsequently calculated as a function of normalized distance from the apex in bins of 2.5% of the total length, using the total length of each histological specimen. Cell counts could reliably be obtained for up to 90% of the total distance from the apex (corresponding to the tonotopic region up to from 0 kHz to ~50 kHz in rat, Viberg & Canlon 2004), while the last 10% was too variable due to damage incurred during dissection.
as §5
To further support the conclusions from the functional audiometry data, the loss of outer hair cells in four treatment group was determined by constructing cytocochleograms from histological preparations of cochleae fixed after audiometry on day 14.

calcineurin = assay: Calcineurin phosphatase activity in cerebellar granule neurons after 4 DIV (malachite green colorimetric assay, Test A); format: cell-based, Wistar rat; conditions: for effect on calcineurin phosphatase activity: CGNs in K25 medium, 10, 100 or 1000 nM for 4 DIV, relative to K25 control (100%); for change of calcineurin inhibition with increasing concentration: CGNs, 4 DIV, 10-1000 nM
Description: According to Test A, phosphatase calcineurin activity is assessed in cerebellar granule neurons (CGNs) using a colorimetric assay kit based on quantification of the green complex formed between malachite green, molybdate and free phosphate released. CGNs are detached from plates, for example by scraping, rinsed in ice-cold tris buffer solution (TBS) and counted. About 10 million cells are lysed in 1 ml of the provided lysis buffer and centrifuged at 150,000×g at 4° C. for 45 min, and the supernatant may be stored at −70° C. until analysis. Prior to calcineurin activity assay, free phosphate and nucleotides are removed from cellular extract by gel filtration. To ensure the complete removal of phosphate, malachite green reagent may be added, which will turn the color green in presence of phosphate. A specific calcineurin substrate is added to phosphate-free cellular extracts and after appropriate incubation period, malachite green reagent is applied. The rapid green color formation from the reaction is measured, for example on a spectrophotometer. The developed color is proportional to the calcineurin phosphatase activity of samples. Absorbance values, read at 620 nm, may thus be transformed to percentage calcineurin activity relative to K25 control treatment (100%). Cerebellar granule cells were dissociated from the cerebellae of 7-day-old Wistar rat pups as described (Kramer et al. 2003, Mol Cell Neurosci 23:325-330). Briefly, the cerebellae were removed, rinsed in HBSS-BSA, minced, digested with 0.025% trypsin and incubated at 37° C. for 15 min. To stop the digestion, DMEM containing 10% fetal calf serum was added; then a single cell suspension was obtained through pipetting up and down the sedimented tissue. Following centrifugation, cells were counted using trypan blue exclusion test in a Burker chamber. This method is based on the ability of viable cells to exclude trypan blue due to their intact cell membranes, leaving them unstained while nonviable cells take up the dye. Cells at 3.2×10^5/cm^2 were seeded in DMEM Hepes modification supplemented with 10% fetal calf serum, 100 μg/ml pyruvate, and 100 μg/ml gentamicin on Polystyrene 12-well tissue culture plates (CELLSTAR) coated with poly-L-lysine. After 24 h, 10 μM cytosine arabinofuranoside was added to inhibit the growth of non-neuronal cells. All pharmacological interventions begun at this time in the culture medium containing 25 mM KCl (K25), which caused depolarization of granule cells and consequently activated gene expression machinery. Moreover, the viability of granule neurons was higher in this milieu and therefore provides the possibility to maintain cells for several days. Indeed, 25 mM KCl is required in the medium for CGN cultures to maintain adequate calcineurin activity and cell maturation and depolarization (Kramer et al., 2003, Mol Cell Neurosci 23:325-330; Vallano et al. 2006, Neuropharmacology 50: 651-660). Cultures received simple medium (K25 control) or medium containing a setron compound in HCl salt form (Tocris Bioscience, Bristol, UK) at concentrations of 10 nM, 100 nM or 1000 nM for 4 days in vitro (DIV). Phosphatase calcineurin activity was assessed in CGNs using a colorimetric assay kit based on quantification of the green complex formed between malachite green, molybdate and free phosphate released. CGNs were detached from plates by scraping, rinsed in ice-cold tris buffer solution (TBS) and counted. About 10 million cells are lysed in 1 ml of the provided lysis buffer and centrifuged at 150,000×g at 4° C. for 45 min, and the supernatant was stored at −70° C. until analysis. Prior to calcineurin activity assay, free phosphate and nucleotides were removed from cellular extract by gel filtration. To ensure the complete removal of phosphate, malachite green reagent was added, which will turn the color green in presence of phosphate. […]

[3] = tested on: noise-induced hearing loss; conditions: Uemaetomari et al. 2005; Bas et al. 2009; cited from earlier work
[4] = day 14, i.p. daily for 14 days after acoustic trauma

Molecule | ABR threshold recovery from 24 h to day 14 compared to placebo [1] | hearing outcomes (ABR thresholds and DPOAE amplitudes) at 14 days after acoustic trauma compared to placebo [1] | ABR threshold shift from baseline to day 14 compared to placebo [1] | DPOAE amplitude loss from baseline to day 14 compared to placebo [2] | recovery of DPOAE amplitudes from 24 h post trauma to day 14 compared to placebo [2] | DPOAE amplitude loss from baseline to day 14 compared to placebo ([2]; listed as granisetron) | mean loss of outer hair cells compared to placebo (outer hair cells) | mean loss of outer hair cells compared to placebo (outer hair cells; listed as granisetron) | effect on calcineurin phosphatase activity (calcineurin) | reduction of ABR threshold shifts compared to placebo treatment [1, 4] | reduction of DPOAE amplitudes loss compared to placebo treatment [2, 4] | change of calcineurin inhibition with increasing concentration (calcineurin) | DPOAE amplitude loss from baseline to day 14 compared to placebo ([2]; listed as tropisetron) | effect on hearing loss in pre-clinical models of noise-induced hearing loss [3]
CN1C2CCCC1CC(NC(=O)c1nn(C)c3ccccc13)C2 (centres unmarked) [granisetron HCl] | decreased threshold recovery | worse ABR thresholds and DPOAE amplitudes | strong trends towards higher ABR threshold shifts | trend towards increased DPOAE amplitude loss | reduced recovery | trend towards worse DPOAE amplitudes | Neither the granisetron HCl nor the tacrolimus treated groups were significantly different from placebo | trend towards worse | no effect | – | – | – | – | –
Cc1nccn1CC1CCc2c(c3ccccc3n2C)C1=O (centres unmarked) [ondansetron HCl] | – | improvement at some frequencies | lower ABR threshold shift | trend towards reduced loss of DPOAE amplitude | improved recovery | – | – | – | significantly inhibited | 10-30% | 10-30% | decreased with increasing concentration | – | –
Cn1cc(C(=O)[C@@H]2CCc3nc[nH]c3C2)c2ccccc21 [ramosetron HCl] | – | – | – | – | – | – | – | – | significantly inhibited | – | – | increased to different degree with increasing concentrations | – | –
CN1[C@@H]2CC[C@H]1C[C@@H](OC(=O)c1c[nH]c3ccccc13)C2 [tropisetron HCl] | decreased threshold recovery | worse ABR thresholds and DPOAE amplitudes | strong trends towards higher ABR threshold shifts | trend towards increased DPOAE amplitude loss | reduced recovery | – | trend towards worse | – | significantly inhibited | – | – | increased to different degree with increasing concentrations | trend towards worse DPOAE amplitudes | –
cyclosporine A | – | – | – | – | – | – | – | – | – | – | – | – | – | reduce hearing loss
